From publication PMC11173765 (Molecules, 2024)
Several values for one entry are separate records, joined by “and”; a condition that tells them apart may be missing. Equal entries are not always repeated. Where two headings read alike, the source gives them in different places.

Columns and labels:
S1R [1] = biological target: T1, S1R (Rattus norvegicus, UniProt Q9R0C9); experiment: S1R radioligand binding assay ([3H]-pentazocine, rat liver homogenates); conditions: for SR subtype preference: in words, from S1R and S2R binding affinities; for S2R/S1R: selectivity ratio Ki S2R / Ki S1R
T1 construct: liver homogenates (250 μg/sample) from male Sprague Dawley rats; from tissue; host or cells: liver homogenate of male Sprague Dawley rats
T1 sequence (Q9R0C9 whole entry): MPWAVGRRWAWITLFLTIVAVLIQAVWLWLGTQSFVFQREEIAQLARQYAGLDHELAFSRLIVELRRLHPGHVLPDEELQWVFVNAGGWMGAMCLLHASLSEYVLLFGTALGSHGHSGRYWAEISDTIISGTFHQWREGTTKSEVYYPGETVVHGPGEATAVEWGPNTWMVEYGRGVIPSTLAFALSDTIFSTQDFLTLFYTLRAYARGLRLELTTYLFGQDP
Method: (§1) The S1R and S2R receptor affinities of the test compounds were evaluated in competition tests by radiometric assays.
(§2) Liver homogenates were prepared from Sprague Dawley rats (ENVIGO RMS S.R.L., Udine, Italy) for both S1R and S2R receptor binding assays. […] An Ultima Gold MV Scintillation cocktail was sourced from PerkinElmer (Milan, Italy). Other materials were obtained from Merck Life Science S.r.l. (Milan, Italy). For each compound, a10 mM DMSO stock solution was obtained. From these, diluted test concentrations ranging from 10^−5 M to 10^−11 M wereprepared using the respective assay buffer. Both assays involve the use of a tris buffer (50 mM, pH 8) and liver homogenates (250 μg/sample) from male Sprague Dawley rats. […] The final volume was 0.5 mL [54]. A millipore filter apparatus was employed to separate bound and free radioligands via filtration under conditions of reduced pressure through Whatman GF 6 glass fiber filters. Each filter paper was washed three times with 2 mL of ice-cold tris buffer (50 mM for S1R, 10 mM for S2R; pH 8.0), dried at room temperature, and incubated overnight with 2 mL of Ultima Gold MV Scintillation cocktail in pony vials. Bound radioactivity was determined using a liquid scintillation counter Beckman LS 6500 (Beckman Coulter Diagnostic, Brea, CA, USA. […]

S2R [2] = biological target: T2, S2R (Rattus norvegicus, UniProt Q5U3Y7); experiment: S2R radioligand binding assay ([3H]-DTG with (+)-pentazocine mask, rat liver homogenates); conditions: for Ki: [3H]-DTG 2 nM, (+)-pentazocine 5 μM mask, rat liver homogenates, mean ± SEM; for S1R/S2R: selectivity ratio Ki S1R / Ki S2R
T2 construct: liver homogenates (250 μg/sample) from male Sprague Dawley rats; from tissue; host or cells: liver homogenate of male Sprague Dawley rats
T2 sequence (Q5U3Y7 1-176): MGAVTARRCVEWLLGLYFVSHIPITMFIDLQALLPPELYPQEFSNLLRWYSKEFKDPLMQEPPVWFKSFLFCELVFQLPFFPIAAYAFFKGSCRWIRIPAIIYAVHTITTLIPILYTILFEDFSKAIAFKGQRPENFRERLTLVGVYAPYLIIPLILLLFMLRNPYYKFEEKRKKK
Method: as §1, §2

SH-SY5Y = experiment: Cytotoxicity, resazurin viability assay in SH-SY5Y cells; type: cell-based; conditions: Homo sapiens, 48 hrs treatment, mean ± SEM
Method: (§3) Cytotoxic potency was measured using a resazurin assay (see Supplementary Materials). Cells were treated with increasing concentrations of each compound for 48 hours before the cell viability was assessed (Supplementary Materials).
(§4) Dulbecco’s modified Eagle medium (DMEM; Gibco, Life Technologies, Grand Island, NY, USA), supplemented with 10% (v/v) of fetal bovine serum (FBS) and Antibiotic Antimycotic Solution (100 U penicillin, 100 μg/mL streptomycin and 0.25 μg/mL amphotericin B; Sigma-Aldrich, St. Louis, MO, USA), was used to culture the human cell lines SH-SY5Y [55] (neuroblastoma, ATCC, CRL-2266) and HUH-7 [56] (hepatocarcinoma, Japanese Cancer Research Resources Bank, National Institutes of Biomedical Innovation, Health and Nutrition, NIBIOHN, JCRB0403).
(§5) Cell viability was evaluated using resazurin (SERVA Electrophoresis GmbH, Heidelberg, Germany) as previously described.
(§6) Briefly, a resazurin stock solution (440 μM, 10× in phosphate-buffered saline) was diluted in a culture medium to prepare a 44 μM working solution. Cells (5 × 10^3) were seeded in 96-well plates, incubated with 100µl of resazurin working solution, and fluorescence was measured after 1, 2, and 3 hrs. The background fluorescence of killed cells was subtracted, and viability was calculated relative to control cells treated with DMSO solvent (1%). The fluorescence was measured using an Envision 2104 Multi-label Microplate Reader (Perkin Elmer, Boston, MA, USA) and by setting the excitation wavelength at λ = 530 nm and emission wavelength at λ = 590 nm. Measurements were performed at a time of 0 and after 1 hour of incubation. Cytotoxicity was calculated as 100% minus the percentage of viability.
(§7) Statistical analysis was carried out with GraphPad Prism® 6.0 software. An unpaired t-test was used to compare treated and control cells, with p < 0.05 considered statistically significant. The half-maximal inhibitory concentration (IC50) values for cytotoxicity were determined by analyzing dose-response curves using GraphPad Prism software.

HUH-7 = experiment: Cytotoxicity, resazurin viability assay in HUH-7 cells; type: cell-based; conditions: Homo sapiens, 48 hrs treatment, mean ± SEM
Method: as §3, §4, §5, §6, §7

S1R [3] = conditions: read-out: Ki S1R; siramesine literature value; cited from earlier work
S2R [4] = conditions: read-out: Ki S2R; siramesine literature value; cited from earlier work
[5] = [3H]-pentazocine 2 nM, rat liver homogenates, mean ± SEM, read-out: Ki S1R

Compound	Ki (S1R [1]; [5])	SR subtype preference (S1R [1])	S2R/S1R (S1R [1])	Ki (S2R [2]; read-out: Ki S2R)	S1R/S2R (S2R [2])	IC50 (SH-SY5Y)	IC50 (HUH-7)	melting point	Ki (S1R [1])	Ki (S2R [2]; Ki S2R)	Ki (S1R [3])	Ki (S2R [4])
COc1cc2c(cc1OC)CN(CCCC(=O)c1ccc(F)cc1)CC2 [4e, 4-(6,7-Dimetoxy-3,4-dihydroisoquinolin-2(1H)-yl)-1-(4-fluorophenyl)butan-1-one]	1660 ± 118 nM	preference for S2R	0.004	6.93 ± 0.76 nM	241	120000 ± 13000 nM	40000 ± 5000 nM	–	–	–	–	–
O=C(CCCN1CCc2ccccc2C1)c1ccc(F)cc1 [4b, 4-(3,4-Dihydroisoquinolin-2(1H)-yl)-1-(4-fluorophenyl)butan-1-one]	44.5 ± 7.39 nM	preference for the S1R subtype	2.8	124 ± 16.3 nM	0.35	–	–	45 to 47 °C	–	–	–	–
O=C(CCCN1CCC(c2ccncc2)CC1)c1ccc(F)cc1 [4i, 1-(4-Fluorophenyl)-4-(4-(pyridin-4-yl)piperidin-1-yl)butan-1-one]	13.9 ± 3.11 nM	preference for the S1R subtype	2.03	28.3 ± 3.33 nM	0.5	–	–	102 to 104 °C	–	–	–	–
COc1ccc(CN(C)CCCC(=O)c2ccc(F)cc2)cc1OC [4c, 4-((3,4-Dimethoxybenzyl)(methyl)-amino)-1-(4-fluorophenyl)butan-1-one]	301 ± 74.7 nM	preference for S2R	0.5	148 ± 10.3 nM	2.0	–	–	–	–	–	–	–
COc1ccc(CC2CCN(CCCC(=O)c3ccc(F)cc3)CC2)cc1OC [4j, 4-(4-(3,4-Dimetoxybenzyl)piperidin-1-yl)-1-(4-fluorophenyl)butan-1-one]	6.1 ± 0.58 nM	preference for the S1R subtype	25	153 ± 30.3 nM	0.04	58000 ± 7000 nM	37000 ± 6000 nM	–	–	–	–	–
O=C(CCCN1CCN(c2ccc(F)cc2)CC1)c1ccc(F)cc1 [4f, 1-(4-Fluorophenyl)-4-(4-(4-fluorophenyl)piperazin-1-yl)butan-1-one]	70.2 ± 23.2 nM	preference for S2R	0.23	16.4 ± 3.17 nM	4.3	–	–	94 to 95 °C	–	–	–	–
O=C(CCCN1CCC2(CC1)OCc1ccccc12)c1ccc(F)cc1 [4g, 1-(4-Fluorophenyl)-4-(3H-spiro[isobenzofuran-1,4′-piperidin]-1′-yl)butan-1-one]	–	dual SR affinity	1.46	–	0.7	57000 ± 6000 nM	16000 ± 2000 nM	88 to 90 °C	6.3 ± 1.4 nM	9.2 nM and 9.23 nM	–	–
Fc1ccc(-n2cc(CCCCN3CCC4(CC3)OCc3ccccc34)c3ccccc32)cc1 [SRM, siramesine, reference compound]	–	–	1.2	–	0.8	5000 ± 1000 nM	2000 ± 250 nM	–	–	–	10.5 ± 2.6 nM	12.6 ± 0.1 nM
O=C(CCCN1CCN(C2CCCCC2)CC1)c1ccc(F)cc1 [4d, 4-(4-Cyclohexylpiperazin-1-yl)-1-(4-fluorophenyl)butan-1-one]	18.8 ± 2.91 nM	dual SR affinity	0.7	13.2 ± 2.78 nM	1.4	–	163000 ± 18000 nM	198 to 200 °C	–	–	–	–
Cc1ccc(CN(C)CCCC(=O)c2ccc(F)cc2)c(C)c1 [4h, 4-((2,4-Dimethylbenzyl)(methyl)amino)-1-(4-fluorophenyl)butan-1-one]	59.7 ± 7.6 nM	preference for S2R	0.46	27.7 ± 3.03 nM	2.1	–	–	–	–	–	–	–
O=C(CCCN1CCCN(Cc2ccccc2)CC1)c1ccc(F)cc1 [4a, 4-(4-Benzyl-1,4-diazepan-1-yl)-1-(4-fluorophenyl)butan-1-one]	21.6 ± 3.44 nM	preference for the S1R subtype	10	210 ± 21.4 nM	–	–	–	–	–	–	–	–
